Tests used:
[1] = tested on: lamivudine-resistant mutants including rtM204V/I±rtL180M; details: literature ref. 50; cited from earlier work
[2] = tested on: wild-type HBV; assay: intracellular HBV DNA replication assay, wild-type HBV; type: cell-based, Hepatitis B virus
Description: (§1) Drug susceptibility assays were performed as previously described. Cytotoxicity assays in PBM, CEM and Vero cells were conducted as previously described. Two compounds were used for testing, the first, an adenine nucleoside analog which contained hydroxyl groups at R^1 and R^1a on the sugar portion of the molecule (compound 15/18) and the second, a prodrug nucleoside based upon compound 15/18 which contained a phosphoamidate group on R^1 (R^1a was H) containing a phenyl group as R^6 and B′ was an amino acid group derived from alanine, where R^8 was methyl and R″ was a methyl group, forming a methyl ester. These compounds were tested in a standard HBV assay in the laboratory of Dr. Brent Korba.

[3] = tested on: HBV rtL180M; assay: intracellular HBV DNA replication assay, rtL180M mutant; type: cell-based, Hepatitis B virus
Description: as §1

[4] = tested on: HBV double mutant rtL180M/rtM204V; assay: intracellular HBV DNA replication assay, double mutant; type: cell-based; details: Hepatitis B virus
Description: as §1

[5] = tested on: HBV rtA181T and rtN236T; details: cited from earlier work
[6] = tested on: HBV; assay: standard HBV assay (laboratory of Dr. Brent Korba); type: cell-based, Hepatitis B virus
Description: as §1

C=C1[C@@H](n2cnc3c(N)ncnc32)[C@@H](F)[C@H](O)[C@H]1CO (hydrate or solvate) [Compound 15, (+)-(1R,2R,3R,5R)-3-(6-amino-9H-9-purinyl)-2-fluoro-5-(hydroxymethyl)-4-methylenecyclopentan-1-ol]
melting point: 215 to 218 °C (dec.)

C=C1[C@H](CO)[C@@H](O)C[C@@H]1n1cnc2c(=O)[nH]c(N)nc21 [entecavir]
fold loss of activity against lamivudine-resistant mutants [1]: 8 fold

C=C1[C@@H](n2cnc3c(N)ncnc32)[C@@H](F)[C@H](O)[C@H]1CO [Compound 15, (+)-(1R,2R,3R,5R)-3-(6-amino-9H-9-purinyl)-2-fluoro-5-(hydroxymethyl)-4-methylenecyclopentan-1-ol]
fold more potent than adefovir (EC90) ([2]; wild-type HBV, EC90): 1.5 fold | fold increased antiviral activity in the EC90 value versus lamivudine [3]: 4.3 fold

Nc1ncnc2c1ncn2CCOCP(=O)(O)O [adefovir]
EC90 ([2]; Hepatitis B virus, HBV-WT, concentration required to inhibit 90% of HBV DNA, read-out: EC90 against wild-type HBV): 7.1 µM | EC50 ([4]; read-out: EC50 against double mutant rtL180M/rtM204V): 2200 nM | EC90 ([4]; read-out: EC90 against double mutant rtL180M/rtM204V): 8.5 µM | increase in median effective concentration [5]: two-fold to nine-fold

C=C1C(COP(=O)(N[C@@H](C)C(=O)OC)Oc2ccccc2)C(O)C(F)C1n1cnc2c(N)ncnc21 (stereo partly drawn) [Test Number 2, 2′-Deoxy-2′-fluoro-3′-hydroxy-4′-(hydroxymethyl)-5′-methylene-carbocyclic Adenosine (2′-FMCA) Monophosphate prodrug]
times more active than the compound where both R1 and R1a are H [6]: more than 10 times

— patent publication US8946244B2, “2′-fluoro-6′methylene carbocyclic nucleosides and methods of treating viral infections” (University of Georgia Research Foundation, Inc., priority 2009, dated 2015)
